The source of these data is US8404708B2, “Dual NK1/NK3 receptor antagonists” (Hoffmann-La Roche Inc., priority 2004, dated 2013).

One experiment deals with human NK1 receptor (Homo sapiens, UniProt P25103). Nature of the experiment: NK1 receptor binding, [3H]substance P displacement, CHO cell membranes.
The target of experiment [1] is T1, Recombinant human NK3 (hNK3) receptor (Homo sapiens, UniProt P29371).
T1 construct: expressed in transfected cells
T1 sequence (P29371 1-465): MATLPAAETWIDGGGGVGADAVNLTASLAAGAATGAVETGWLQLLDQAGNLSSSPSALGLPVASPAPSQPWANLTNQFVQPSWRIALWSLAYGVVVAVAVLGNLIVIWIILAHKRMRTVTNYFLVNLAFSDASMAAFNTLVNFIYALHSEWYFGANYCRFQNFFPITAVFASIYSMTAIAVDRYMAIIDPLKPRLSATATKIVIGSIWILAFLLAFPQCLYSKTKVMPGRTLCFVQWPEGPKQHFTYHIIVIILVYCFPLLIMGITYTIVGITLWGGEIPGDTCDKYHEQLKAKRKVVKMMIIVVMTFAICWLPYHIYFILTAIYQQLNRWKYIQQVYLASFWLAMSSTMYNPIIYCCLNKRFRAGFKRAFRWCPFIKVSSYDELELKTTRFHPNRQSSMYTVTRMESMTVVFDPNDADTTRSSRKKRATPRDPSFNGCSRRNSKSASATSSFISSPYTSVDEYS
The experiment can be described thus: NK3 receptor binding, [3H]SR142801 displacement, membrane preparations. In outline: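 Incubation ran 90 min at room temperature in 50 mM Tris-HCl pH 7.4 with 0.1% BSA, 4 mM MnCl2 and 1 μM phosphoramidon, using about 2.5 μg hNK3 membrane protein per well. Nonspecific binding was defined with 10 μM SB222200, and bound radioactivity was collected on PEI-soaked GF/C filters for scintillation counting.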

[2] abbreviates: first value of the cell NK1/NK3, read-out: pKi NK1 (converted).
[3] abbreviates: second value of the cell NK1/NK3, read-out: pKi NK3 (converted).
Setting [4] is: first value of the cell pKi NK1/NK3, human NK1 receptor, [3H]substance P.
Where [5] appears, read: second value of the cell pKi NK1/NK3, hNK3 receptor, [3H]SR142801.

SMILES strings stand for the structures. Read-outs that look alike come from different tables or passages of the source.

Chain of human NK1 receptor (P25103 whole entry): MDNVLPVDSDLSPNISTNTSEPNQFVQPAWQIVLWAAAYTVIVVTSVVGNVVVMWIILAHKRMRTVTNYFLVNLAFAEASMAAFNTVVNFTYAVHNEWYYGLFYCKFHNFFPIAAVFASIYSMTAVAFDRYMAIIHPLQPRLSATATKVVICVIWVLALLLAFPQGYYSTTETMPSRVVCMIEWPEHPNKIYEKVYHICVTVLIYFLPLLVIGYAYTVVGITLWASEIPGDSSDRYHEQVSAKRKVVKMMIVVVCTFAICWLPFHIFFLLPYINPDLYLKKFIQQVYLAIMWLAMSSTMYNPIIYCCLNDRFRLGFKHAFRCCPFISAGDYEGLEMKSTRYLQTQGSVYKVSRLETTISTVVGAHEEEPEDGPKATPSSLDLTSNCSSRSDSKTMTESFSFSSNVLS

In the case of `CN(C(=O)C(C)(C)c1cc(C(F)(F)F)cc(C(F)(F)F)c1)c1cnc(N2CCC[C@H]2CO)cc1-c1ccc(F)cc1` [Example 288, (S)-2-(3,5-Bis-trifluoromethyl-phenyl)-N-[4-(4-fluoro-phenyl)-6-(2-hydroxymethyl-pyrrolidin-1-yl)-pyridin-3-yl]-N-methyl-isobutyramide], the Ki at human NK1 receptor (setting [2]) was 2.63 nM; in experiment [1] (setting [3]) it was 2.51 nM.
For the compound `Cc1cc(C)cc(C(C)(C)C(=O)N(C)c2cnc(N3C[C@H](O)C[C@H]3CO)cc2-c2ccccc2Cl)c1` [Example 10, (2S,4R)-N-[4-(2-Chloro-phenyl)-6-(4-hydroxy-2-hydroxymethyl-pyrrolidin-1-yl)-pyridin-3-yl]-2-(3,5-dimethyl-phenyl)-N-methyl-isobutyramide], the values for the Ki (on human NK1 receptor (setting [4]); in experiment [1] (setting [5])) were 2.14 nM and 3.63 nM, respectively.
`Cc1ccccc1-c1cc(N(CCO)CCO)ncc1N(C)C(=O)C(C)(C)c1cc(C(F)(F)F)cc(C(F)(F)F)c1` [Example 83, N-{6-[Bis-(2-hydroxy-ethyl)-amino]-4-o-tolyl-pyridin-3-yl}-2-(3,5-bis-trifluoromethyl-phenyl)-N-methyl-isobutyramide]: the Ki on human NK1 receptor (setting [4]) was 1.17 nM; in experiment [1] (setting [5]) it was 1.1 nM.
On the same counts, the results for `CN(C(=O)C(C)(C)c1cc(C(F)(F)F)cc(C(F)(F)F)c1)c1cnc(NCC(C)(C)O)cc1-c1ccccc1Cl` [Example 75, 2-(3,5-Bis-trifluoromethyl-phenyl)-N-[4-(2-chloro-phenyl)-6-(2-hydroxy-2-methyl-propylamino)-pyridin-3-yl]-N-methyl-isobutyramide] are 1.7 nM and 12.3 nM.
As to `Cc1cc(F)ccc1-c1cc(N2CCC[C@H]2CO)ncc1N(C)C(=O)C(C)(C)c1cc(Cl)cc(OC(F)F)c1` [Example 38, (S)-2-(3-Chloro-5-difluoromethoxy-phenyl)-N-[4-(4-fluoro-2-methyl-phenyl)-6-(2-hydroxymethyl-pyrrolidin-1-yl)-pyridin-3-yl]-N-methyl-isobutyramide], the Ki is 3.55 nM at human NK1 receptor (setting [4]) and 2.24 nM in experiment [1] (setting [5]).
For `Cc1ccccc1-c1cc(N2C[C@@H](O)C[C@@H]2CO)ncc1N(C)C(=O)C(C)(C)c1cc(C(F)(F)F)cc(C(F)(F)F)c1` [Example 260, (2R,4S)-2-(3,5-Bis-trifluoromethyl-phenyl)-N-[6-(4-hydroxy-2-hydroxymethyl-pyrrolidin-1-yl)-4-o-tolyl-pyridin-3-yl]-N-methyl-isobutyramide], the values for the Ki (on human NK1 receptor (setting [2]); in experiment [1] (setting [3])) were 1.41 nM and 17.8 nM, respectively.
Take `Cc1cc(F)ccc1-c1cc(N2CC(=O)C[C@H]2CO)ncc1N(C)C(=O)C(C)(C)c1cc(C(F)(F)F)cc(C(F)(F)F)c1` [Example 296, (S)-2-(3,5-Bis-trifluoromethyl-phenyl)-N-[4-(4-fluoro-2-methyl-phenyl)-6-(2-hydroxymethyl-4-oxo-pyrrolidin-1-yl)-pyridin-3-yl]-N-methyl-isobutyramide]: the Ki is 2.51 nM at human NK1 receptor (setting [2]) and 1.74 nM in experiment [1] (setting [3]).
Turning to `CCCCCCN(CCO)c1cc(-c2ccccc2Cl)c(N(C)C(=O)C(C)(C)c2cc(C(F)(F)F)cc(C(F)(F)F)c2)cn1` [Example 148, 2-(3,5-Bis-trifluoromethyl-phenyl)-N-{4-(2-chloro-phenyl)-6-[hexyl-(2-hydroxy-ethyl)-amino]-pyridin-3-yl}-N-methyl-isobutyramide], the Ki was 2.09 nM on human NK1 receptor (setting [4]) and 12 nM in experiment [1] (setting [5]).
`CC(=O)N[C@H]1CCN(c2cc(-c3ccccc3Br)c(N(C)C(=O)C(C)(C)c3cc(C(F)(F)F)cc(C(F)(F)F)c3)cn2)C1` [Example 133, (S)-N-[6-(3-Acetylamino-pyrrolidin-1-yl)-4-(2-bromo-phenyl)-pyridin-3-yl]-2-(3,5-bis-trifluoromethyl-phenyl)-N-methyl-isobutyramide]: the results for the Ki (at human NK1 receptor (setting [4]); in experiment [1] (setting [5])) were 0.794 nM and 2 nM, respectively.
In the case of `Cc1ccccc1-c1cc(N2C[C@@H](F)C[C@H]2CO)ncc1N(C)C(=O)C(C)(C)c1cc(C(F)(F)F)cc(C(F)(F)F)c1` [Example 297, (2S,4S)-2-(3,5-Bis-trifluoromethyl-phenyl)-N-[6-(4-fluoro-2-hydroxymethyl-pyrrolidin-1-yl)-4-o-tolyl-pyridin-3-yl]-N-methyl-isobutyramide], the Ki on human NK1 receptor (setting [2]) was 2.88 nM; in experiment [1] (setting [3]) it was 1.32 nM.
For `Cc1ccccc1-c1cc(N2CC(=O)C[C@H]2CO)ncc1N(C)C(=O)C(C)(C)c1cc(C(F)(F)F)cc(C(F)(F)F)c1` [Example 295, (S)-2-(3,5-Bis-trifluoromethyl-phenyl)-N-[6-(2-hydroxymethyl-4-oxo-pyrrolidin-1-yl)-4-o-tolyl-pyridin-3-yl]-N-methyl-isobutyramide] the same measures were 1.55 nM and 1.66 nM.
For the compound `COc1cc(Cl)cc(C(C)(C)C(=O)N(C)c2cnc(N3CCC[C@H]3CO)cc2-c2ccccc2Cl)c1` [Example 7, (S)-2-(3-Chloro-5-methoxy-phenyl)-N-[4-(2-chloro-phenyl)-6-(2-hydroxymethyl-pyrrolidin-1-yl)-pyridin-3-yl]-N-methyl-isobutyramide], the Ki is 4.79 nM at human NK1 receptor (setting [4]) and 1.78 nM in experiment [1] (setting [5]).
With `C[C@H](O)CNc1cc(-c2ccc(Cl)cc2Cl)c(N(C)C(=O)C(C)(C)c2cc(C(F)(F)F)cc(C(F)(F)F)c2)cn1` [Example 71, (S)-2-(3,5-Bis-trifluoromethyl-phenyl)-N-[4-(2,4-dichloro-phenyl)-6-(2-hydroxy-propylamino)-pyridin-3-yl]-N-methyl-isobutyramide], the Ki at human NK1 receptor (setting [4]) was 2.04 nM; in experiment [1] (setting [5]) it was 9.12 nM.
`Cc1ccc(F)cc1-c1cc(N2CC[C@H](O)[C@H]2CO)ncc1N(C)C(=O)C(C)(C)c1cc(C(F)(F)F)cc(C(F)(F)F)c1` [Example 276, (2R,3S)-2-(3,5-Bis-trifluoromethyl-phenyl)-N-[4-(5-fluoro-2-methyl-phenyl)-6-(3-hydroxy-2-hydroxymethyl-pyrrolidin-1-yl)-pyridin-3-yl]-N-methyl-isobutyramide]: the Ki at human NK1 receptor (setting [2]) is 1.45 nM; in experiment [1] (setting [3]), 1.38 nM.
Regarding `CN(C(=O)C(C)(C)c1cc(C(F)(F)F)cc(C(F)(F)F)c1)c1cnc(N2CC[C@@H](O)[C@H](O)C2)cc1-c1ccccc1Cl` (racemic) [Example 188, (3RS,4RS)-2-(3,5-Bis-trifluoromethyl-phenyl)-N-[4′-(2-chloro-phenyl)-3,4-dihydroxy-3,4,5,6-tetrahydro-2H-[1,2′]bipyridinyl-5′-yl]-N-methyl-isobutyramide], the Ki on human NK1 receptor (setting [4]) was 1.32 nM; in experiment [1] (setting [5]) it was 15.5 nM.
For `CN(C)c1ccc(-c2cc(N3C[C@H](O)C[C@H]3CO)ncc2N(C)C(=O)C(C)(C)c2cc(C(F)(F)F)cc(C(F)(F)F)c2)cc1` [Example 204, (2S,4R)-2-(3,5-Bis-trifluoromethyl-phenyl)-N-[4-(4-dimethylamino-phenyl)-6-(4-hydroxy-2-hydroxymethyl-pyrrolidin-1-yl)-pyridin-3-yl]-N-methyl-isobutyramide] the same measures were 15.1 nM and 14.8 nM.
On the same counts, the results for `CC(=O)N[C@H]1C[C@@H](CO)N(c2cc(-c3ccccc3Cl)c(N(C)C(=O)C(C)(C)c3cc(C(F)(F)F)cc(C(F)(F)F)c3)cn2)C1` [Example 40, (2S,4S)-N-[6-(4-Acetylamino-2-hydroxymethyl-pyrrolidin-1-yl)-4-(2-chloro-phenyl)-pyridin-3-yl]-2-(3,5-bis-trifluoromethyl-phenyl)-N-methyl-isobutyramide] are 0.646 nM and 1.02 nM.
Take `Cc1cc(F)ccc1-c1cc(N2CCC[C@H]2C(C)(C)O)ncc1N(C)C(=O)C(C)(C)c1cc(C(F)(F)F)cc(C(F)(F)F)c1` [Example 159, (S)-2-(3,5-Bis-trifluoromethyl-phenyl)-N-{4-(4-fluoro-2-methyl-phenyl)-6-[2-(1-hydroxy-1-methyl-ethyl)-pyrrolidin-1-yl]-pyridin-3-yl}-N-methyl-isobutyramide]: the values for the Ki (on human NK1 receptor (setting [4]); in experiment [1] (setting [5])) were 1.78 nM and 9.55 nM, respectively.
Turning to `Cc1ccc(F)cc1-c1cc(N2C[C@@H](O)C[C@H]2CO)ncc1N(C)C(=O)C(C)(C)c1cc(C(F)(F)F)cc(C(F)(F)F)c1` [Example 250, (2S,4S)-2-(3,5-Bis-trifluoromethyl-phenyl)-N-[4-(5-fluoro-2-methyl-phenyl)-6-(4-hydroxy-2-hydroxymethyl-pyrrolidin-1-yl)-pyridin-3-yl]-N-methyl-isobutyramide], the Ki is 1.95 nM at human NK1 receptor (setting [2]) and 2 nM in experiment [1] (setting [3]).
On the same counts, the results for `CN(C(=O)C(C)(C)c1cc(C(F)(F)F)cc(C(F)(F)F)c1)c1cnc(N2C[C@H](O)C[C@H]2CO)cc1-c1ccc(F)cc1CO` [Example 223, (2S,4R)-2-(3,5-Bis-trifluoromethyl-phenyl)-N-[4-(4-fluoro-2-hydroxymethyl-phenyl)-6-(4-hydroxy-2-hydroxymethyl-pyrrolidin-1-yl)-pyridin-3-yl]-N-methyl-isobutyramide] are 0.708 nM and 3.09 nM.
